In series [1] the target is T1, Aurora kinase B (Homo sapiens, UniProt Q96GD4). Briefly: Inhibition of Aurora B.
Series [2] concerns the target T1, Aurora kinase B. As to the kind of experiment: Inhibition of Aurora B in human HCT116 cells assessed as inhibition of histone H3 phosphorylation by immunofluorescence assay. The class given is cell-based, HCT-116.
Series [3] in a line: AUC (0 to 6 hrs) in rat at 10 mg/kg, po. The arrangement: time < 6 hr, dose 10 mg/kg, route oral. The class given is ADME, organism-based. Conditions: plasma.
The target of the next series is T2, Aurora kinase A (Homo sapiens, UniProt O14965).
T2 sequence (O14965 whole entry): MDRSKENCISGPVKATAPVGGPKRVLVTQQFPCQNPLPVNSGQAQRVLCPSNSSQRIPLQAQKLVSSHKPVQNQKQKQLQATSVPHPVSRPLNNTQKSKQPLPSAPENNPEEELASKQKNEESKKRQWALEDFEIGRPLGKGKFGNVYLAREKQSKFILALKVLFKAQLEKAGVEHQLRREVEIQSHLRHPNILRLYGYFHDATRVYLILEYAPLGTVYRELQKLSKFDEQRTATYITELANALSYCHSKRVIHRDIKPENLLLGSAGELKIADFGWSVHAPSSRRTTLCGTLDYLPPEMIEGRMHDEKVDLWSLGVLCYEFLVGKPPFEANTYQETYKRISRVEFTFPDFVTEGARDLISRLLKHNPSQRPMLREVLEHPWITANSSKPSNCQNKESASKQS
Briefly: Inhibition of Aurora A.

A short description of series [4]: Plasma clearance in rat. The class given is ADME, organism-based.
Series [5] in a line: Oral AUC in cynomolgus monkey at 10 mg/kg, po. The class given is ADME, organism-based, Macaca fascicularis. On the set-up: dose 10 mg/kg, route oral. As to conditions: in vivo.
A short description of series [6]: Oral AUC in Beagle dog at 10 mg/kg, po. The arrangement: dose 10 mg/kg, route oral. Conditions: in vivo. The class given is ADME, organism-based, Canis lupus familiaris.
Series [7] in a line: Oral bioavailability in Sprague-Dawley rat at 30 mg/kg. The class given is ADME, organism-based. Conditions: in vivo.
A short description of series [8]: AUC in CD1 mouse at 50 mg/kg, po. The class given is ADME, organism-based. On the set-up: dose 50 mg/kg, route oral. As to conditions: plasma.
Series [9] can be described thus: Oral AUC in Sprague-Dawley rat at 30 mg/kg, po. The class given is ADME, organism-based. The arrangement: dose 30 mg/kg, route oral. As to conditions: in vivo.
The nature of series [10]: Oral bioavailability in cynomolgus monkey at 10 mg/kg. The class given is ADME, organism-based, Macaca fascicularis. As to conditions: in vivo.
Series [11] can be described thus: Oral bioavailability in Beagle dog at 10 mg/kg. The class given is ADME, organism-based, Canis lupus familiaris. Conditions: beagle, in vivo.
Series [12] in a line: Oral bioavailability in CD1 mouse at 50 mg/kg. The class given is ADME, organism-based. Conditions: in vivo.

Broadly, the IC50 is the concentration that gives 50% inhibition. Broadly, the AUC(0-t) is the area under the concentration-time curve up to a stated or last time point. As a reminder, the clearance is the rate of elimination divided by the concentration. The AUC is the area under the concentration-time curve, a measure of exposure. As usually defined, the bioavailability is dose-corrected exposure relative to a reference, in per cent.

T1 sequence (Q96GD4 whole entry): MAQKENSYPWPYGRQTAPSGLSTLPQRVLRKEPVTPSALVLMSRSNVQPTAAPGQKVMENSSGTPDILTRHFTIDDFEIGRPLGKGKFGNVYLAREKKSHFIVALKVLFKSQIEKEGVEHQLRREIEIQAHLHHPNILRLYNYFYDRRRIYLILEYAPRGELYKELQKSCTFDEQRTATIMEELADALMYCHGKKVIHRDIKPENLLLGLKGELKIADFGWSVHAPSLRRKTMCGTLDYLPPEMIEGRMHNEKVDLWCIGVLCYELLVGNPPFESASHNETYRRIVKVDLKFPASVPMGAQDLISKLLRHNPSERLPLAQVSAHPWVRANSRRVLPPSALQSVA

For the molecule `Cc1cn2c(-c3cn[nH]c3)cnc2c(Nc2cc(CN3CCCC(F)C3)ns2)n1.Cl` (stereo not given), the IC50 was ≤ 13 nM against Aurora kinase B [1], 193 nM on Aurora kinase B [2] and ≤ 4 nM at Aurora kinase A. This molecule also registered an area under the curve AUC(0-t) at 6 h in series [3] of 1.21 µM·h.

On to `Cc1cn2c(-c3cn[nH]c3)cnc2c(Nc2cc(CN3CC(F)(F)C(F)(F)C3)ns2)n1.Cl`, for which the IC50 on Aurora kinase B [1] is ≤ 13 nM; at Aurora kinase B [2] it was 50 nM; at Aurora kinase A, ≤ 4 nM. The AUC(0-t) at 6 h in series [3] came out at 0.11 µM·h.

As to `Cc1cn2c(-c3cn[nH]c3)cnc2c(Nc2cc(CN3CCC(C(F)(F)F)CC3)ns2)n1.Cl`, the IC50 on Aurora kinase B [1] is ≤ 13 nM; at Aurora kinase B [2] it was 218 nM; against Aurora kinase A, ≤ 4 nM. The molecule further returned an area under the curve AUC(0-t) at 6 h in [3] of 1.34 µM·h.

Consider `Cc1cn2c(-c3cn[nH]c3)cnc2c(Nc2cc(CN3CCCC3)ns2)n1`, for which the results for the IC50 against Aurora kinase B [1], at Aurora kinase B [2] and against Aurora kinase A were ≤ 13 nM, 88 nM and ≤ 4 nM, respectively.

For `Cl.[2H]C([2H])(c1cc(Nc2nc(C)cn3c(-c4cn[nH]c4)cnc23)sn1)N1CCCCC1`, the clearance in series [4] is 35 mL/min/kg.

As to `Cc1cn2c(-c3cn[nH]c3)cnc2c(Nc2cc(CN(CC(F)F)C(C)(C)CO)ns2)n1.Cl`, the 50% inhibitory concentration (IC50) at Aurora kinase B [1] was ≤ 13 nM; on Aurora kinase B [2] it was 306 nM; on Aurora kinase A, ≤ 4 nM. This molecule showed an AUC(0-t) at 6 h in [3] of 0.28 µM·h.

With `Cc1cn2c(-c3cn[nH]c3)cnc2c(Nc2cc(CN3CC(F)(F)C3)ns2)n1.O=C(O)C(F)(F)F`, the IC50 against Aurora kinase B [1] was ≤ 13 nM; on Aurora kinase B [2], 76 nM; against Aurora kinase A, ≤ 4 nM. Besides, the AUC in series [5] came to 0.1 µM·h; in series [6], 3.8 µM·h; in series [8], 7.1 µM·h; in [9] it was 7.1 µM·h. Also, the bioavailability in series [7] came out at 12%. In series [3], this molecule yielded an AUC(0-t) at 6 h of 12.1 µM·h.

For the molecule `Cc1cn2c(-c3cn[nH]c3)cnc2c(Nc2cc(CN3CCC(F)(F)CC3)ns2)n1.Cl`, the concentration for half-maximal inhibition (IC50) is ≤ 13 nM against Aurora kinase B [1], 74 nM on Aurora kinase B [2] and ≤ 4 nM against Aurora kinase A. The molecule also yielded an AUC(0-t) at 6 h in series [3] of 0.95 µM·h.

With `Cc1cn2c(-c3cn[nH]c3)cnc2c(Nc2cc(CN3CCCC(F)(F)C3)ns2)n1.Cl`, the IC50 is ≤ 13 nM against Aurora kinase B [1], 79 nM at Aurora kinase B [2] and ≤ 4 nM on Aurora kinase A. The molecule further yielded an AUC(0-t) at 6 h in series [3] of 1.56 µM·h.

Take `Cc1cn2c(-c3cn[nH]c3)cnc2c(Nc2cc(CN3CC[C@H](F)C3)ns2)n1.Cl`: the 50% inhibitory concentration (IC50) was ≤ 13 nM on Aurora kinase B [1], 93 nM at Aurora kinase B [2] and ≤ 4 nM at Aurora kinase A. The same molecule came in with an exposure AUC(0-t) at 6 h in series [3] of 0.76 µM·h.

Take `Cc1cn2c(-c3cn[nH]c3)cnc2c(Nc2cc(CN(CC(F)(F)F)C(C)(C)CO)ns2)n1.Cl`: the IC50 on Aurora kinase B [1] is ≤ 13 nM; at Aurora kinase B [2], 198 nM; against Aurora kinase A it was ≤ 4 nM. In series [3], the AUC(0-t) at 6 h was determined as 0.86 µM·h.

In the case of `Cc1cn2c(-c3cn[nH]c3)cnc2c(Nc2cc(CN3CC[C@@H](F)C3)ns2)n1.Cl`, the IC50 was ≤ 13 nM against Aurora kinase B [1], 82 nM at Aurora kinase B [2] and ≤ 4 nM against Aurora kinase A. This molecule also came in with an exposure AUC(0-t) at 6 h in [3] of 0.74 µM·h.

In the case of `Cc1cn2c(-c3cn[nH]c3)cnc2c(Nc2cc(CN3CCC(F)CC3)ns2)n1.Cl`, the figures for the IC50 on Aurora kinase B [1], on Aurora kinase B [2] and on Aurora kinase A were ≤ 13 nM, 86 nM and ≤ 4 nM, respectively. For the same molecule, the bioavailability in series [10] stood at 3%; in series [11], 38%; in [7], 21%; in series [12] it was 10%. The area under the curve (AUC) in series [5] was found to be 0.4 µM·h; in series [6] it was 6.1 µM·h; in [8] it was 1.2 µM·h; in series [9], 8 µM·h. The molecule also came in with an exposure AUC(0-t) at 6 h in [3] of 2.2 µM·h.

With `Cc1cn2c(-c3cn[nH]c3)cnc2c(Nc2cc(CNCC(F)(F)C(F)(F)F)ns2)n1.Cl`, the results for the IC50 against Aurora kinase B [1], on Aurora kinase B [2] and at Aurora kinase A were ≤ 13 nM, 51 nM and ≤ 4 nM, respectively. In series [3], this molecule gave an AUC(0-t) at 6 h of 3.42 µM·h.

In the case of `Cc1cn2c(-c3cn[nH]c3)cnc2c(Nc2cc(CN3CC(F)C3)ns2)n1.O=C(O)C(F)(F)F`, the half-maximal inhibitory concentration (IC50) on Aurora kinase B [1] was ≤ 13 nM; on Aurora kinase B [2], 191 nM; on Aurora kinase A it was ≤ 4 nM. In addition, the AUC(0-t) at 6 h in series [3] was determined as 0.18 µM·h.

`Cl.[2H]C([2H])(NCCC(F)(F)F)c1cc(Nc2nc(C)cn3c(-c4cn[nH]c4)cnc23)sn1` returned a clearance in series [4] of 5.1 mL/min/kg.

Turning to `Cc1cn2c(-c3cn[nH]c3)cnc2c(Nc2cc(CNCCC(F)(F)F)ns2)n1.Cl`, the results for the half-inhibitory concentration (IC50) at Aurora kinase B [1], on Aurora kinase B [2] and at Aurora kinase A were ≤ 13 nM, 63 nM and ≤ 4 nM, respectively. In addition, the clearance in series [4] was 12 mL/min/kg. In addition, the exposure (AUC) in [5] is 0.03 µM·h; in series [6], 0.3 µM·h; in series [8], 11.1 µM·h; in [9], 20.5 µM·h. The bioavailability in series [7] is 22%. Further, the AUC(0-t) at 6 h in series [3] came out at 10.9 µM·h.

Regarding `Cc1cn2c(-c3cn[nH]c3)cnc2c(Nc2cc(CN3CCCCC3)ns2)n1.Cl`, the IC50 against Aurora kinase B [1] is ≤ 13 nM; on Aurora kinase B [2] it was 45 nM; against Aurora kinase A it was ≤ 4 nM. In series [4], this molecule gave a clearance of 80 mL/min/kg. In series [3], this molecule yielded an exposure AUC(0-t) at 6 h of 0.21 µM·h.

The values above are taken from ChEMBL document CHEMBL1649074, “Aurora kinase inhibitors based on the imidazo[1,2-a]pyrazine core: fluorine and deuterium incorporation improve oral absorption and exposure” (J Med Chem, 2011).
